Patent publication US20250356957A1, “EMULATOR OF SUBCUTANEOUS ABSORPTION AND RELEASE” (UNIVERSITY OF KANSAS, priority 2022, published 2025)

Experiment: ESCAR drug release tests for acetaminophen solution (factor screening)
Format: in vitro ADME
Conditions: center position injection, 10 mg/mL solution
Protocol: Acetaminophen solution (10 mg/mL) and the subcutaneous chamber (Version 1; FIG. 2C) were used across different runs. Both the “lymphatic circulation” and “blood circulation” chambers were filled with 75 mL of PBS (pH 7.4), and the subcutaneous chamber was filled with 2.8 mL of HA/PBS solution. At the surrounding areas of the interfaces, a layer of mounting tape was assembled to prevent liquid leakage. Sequentially, the “subcutaneous”/“blood circulation” interface was assembled with a SpectraPor® dialysis membrane (MWCO: 50 kDa), and the “subcutaneous”/“lymphatic circulation” interface was assembled with a SpectraPor® dialysis membrane (MWCO: 300 kDa). All membranes were pre-soaked in DI water for at least 1 h before use. The drug release tests were conducted at 34° C. in a convective oven, with mild magnetic stirring in the “blood circulation” and “lymphatic circulation” chambers. […] A 18-run full factorial experimental design was employed to evaluate three factors, HA concentration (three levels: 2.5, 5, 10 mg/mL), injection volume (three levels: 0.25, 0.5, 1 mL), and injection position/needle tip position to the membrane at the “subcutaneous”/“blood circulation” interface (two levels: 0.2, 0.5 cm). At the pre-set time points, 1.5 mL of aliquots were withdrawn from the “blood circulation” chamber with the replacement of the same volume of PBS. Each run was conducted in triplicate.

## CC(=O)Nc1ccc(O)cc1 [acetaminophen, Acetaminophen]
2.5 mg/mL HA solution
  release fraction (%) at 8-hr: ~60%
5 mg/mL HA solution
  release fraction (%) at 8-hr: ~30%
10 mg/mL HA solution
  release fraction (%) at 8-hr: ~15%
Subcutaneous medium PBS
  release fraction (%) at 8-hr: ~80%
